Laboratory results reported in patent US11572590B2, “Methods for evaluating tumor cell spheroids using 3D microfluidic cell culture device” (Dana-Farber Cancer Institute, Inc., priority 2017, dated 2023).

Test system: PDOTS
Experiment: Bead-based cytokine profiling of PDOTS after ex vivo checkpoint blockade
Type: cell-based, human
Description: Fresh tumor specimens (murine and human patients) were received in media (DMEM) on ice and minced in a 10 cm dish (on ice) using sterile forceps and scalpel. Minced tumor was resuspended in DMEM ([…], […] sodium pyruvate, 1:100 penicillin-streptomycin) (Corning CellGro, Manassas, Va.) +10% FBS (Gemini Bio-Products, West Sacramento, Calif.), 100 U/mL collagenase type IV (Life Technologies, Carlsbad, Calif.), and 15 mM HEPES (Life Technologies, Carlsbad, Calif.), except for CT26 tumors that were prepared in RPMI. Samples were pelleted and resuspended in 10-20 mL media. Red blood cells were removed from visibly bloody samples using RBC Lysis Buffer (Boston Bio-Products, Ashland, Mass.). […]
Two multiplex assays were performed utilizing a bead-based immunoassay approach, the Bio-Plex Pro™ Human Cytokine 40-plex Assay (Cat #171AK99MR2) and Bio-Plex Pro™ Mouse Cytokine Panel 1, 23-plex (Cat #M60009RDPD) on a Bio-plex 200 system (Cat #171000201). […] Fold changes relative to the MDOT/PDOT control were calculated and plotted as log 2FC. Lower and upper limits of quantitation (LLOQ/ULOQ) were imputed from standard curves for cytokines above or below detection. […]

Substance	PDOTS samples with upregulation of CCL19 and CXCL13 (Day 3 cytokine release, n=28, pembrolizumab 250 μg/mL)	CCL19/CXCL13 induction in PDOTS (Day 3, ipilimumab 50 μg/mL alone or with pembrolizumab 250 μg/mL)
PD-1 blockade: PDOTS were treated with anti-PD-1 (pembrolizumab, 250 μg/mL)	23/28	–
CTLA-4 blockade: PDOTS were treated with anti-CTLA-4 (ipilimumab, 50 μg/mL)	–	comparatively minimal
